Experimental data: a compilation of properties of binary mixtures (doi:10.1016/j.molliq.2018.07.077)

Test: xn = mol fraction of the nth substance listed
Settings: 101 kPa

C[n+]1ccn(CCCC#N)c1.O=S(=O)([O-])C(F)(F)F + CC#N
Settings	electrical conductivity [S/m]	viscosity [mPa·s]
288.15 K, x1 = 0.2002	1.88	6.79
288.15 K, x1 = 0.4006	0.55	70.7
288.15 K, x1 = 0.6005	0.175	160
288.15 K, x1 = 0.698	0.07	340
288.15 K, x1 = 0.7996	0.053	579
288.15 K, x1 = 0.9007	0.031	874
288.15 K, x1 = 1	0.023	1182
293.15 K, x1 = 0.1002	2.87	1.51
293.15 K, x1 = 0.2002	2.08	5.95
293.15 K, x1 = 0.2994	1.19	14.1
293.15 K, x1 = 0.4006	0.651	55.5
293.15 K, x1 = 0.5	0.246	85.7
293.15 K, x1 = 0.698	0.093	255
293.15 K, x1 = 0.7996	0.079	417
293.15 K, x1 = 0.9007	0.044	625
293.15 K, x1 = 1	0.033	811
298.15 K, x1 = 0.1002	3.04	1.4
298.15 K, x1 = 0.2002	2.28	5.23
298.15 K, x1 = 0.2994	1.35	12.15
298.15 K, x1 = 0.4006	0.766	44.44
298.15 K, x1 = 0.5	0.315	68.6
298.15 K, x1 = 0.6005	0.278	92
298.15 K, x1 = 0.698	0.124	195.4
298.15 K, x1 = 0.9007	0.061	450
298.15 K, x1 = 1	0.046	581
303.15 K, x1 = 0.1002	3.22	1.3
303.15 K, x1 = 0.2002	2.49	4.65
303.15 K, x1 = 0.2994	1.51	10.55
303.15 K, x1 = 0.4006	0.896	36.24
303.15 K, x1 = 0.5	0.394	54.8
303.15 K, x1 = 0.6005	0.345	72.2
303.15 K, x1 = 0.698	0.163	149
303.15 K, x1 = 0.7996	0.151	230
308.15 K, x1 = 0.1002	3.41	1.21
308.15 K, x1 = 0.2002	2.69	4.18
308.15 K, x1 = 0.4006	1.03	29.81
308.15 K, x1 = 0.5	0.485	44.07
308.15 K, x1 = 0.6005	0.419	57.2
308.15 K, x1 = 0.698	0.213	116.3
308.15 K, x1 = 0.7996	0.193	174
308.15 K, x1 = 0.9007	0.106	245
313.15 K, x1 = 0.1002	3.57	1.13
313.15 K, x1 = 0.2994	1.88	8.05
313.15 K, x1 = 0.4006	1.17	24.79
313.15 K, x1 = 0.6005	0.5	46.5
313.15 K, x1 = 0.698	0.274	91.3
313.15 K, x1 = 0.9007	0.135	185
313.15 K, x1 = 1	0.104	231
318.15 K, x1 = 0.2002	3.08	3.41
318.15 K, x1 = 0.2994	2.08	7.12
318.15 K, x1 = 0.4006	1.32	21.09
318.15 K, x1 = 0.6005	0.593	37.8
318.15 K, x1 = 0.7996	0.288	104.7
318.15 K, x1 = 1	0.131	177.1
323.15 K, x1 = 0.2002	3.28	3.13
323.15 K, x1 = 0.2994	2.29	6.32
323.15 K, x1 = 0.4006	1.48	18.37
323.15 K, x1 = 0.5	0.781	25.17
323.15 K, x1 = 0.698	0.44	61.3
323.15 K, x1 = 0.7996	0.341	83.4
323.15 K, x1 = 0.9007	0.205	104.8
323.15 K, x1 = 1	0.161	141.4
